The values that follow come from US20250120988A1, “SMALL MOLECULE COMPOUND FOR TREATING ISCHEMIC STROKE, ITS PREPARATION METHOD, AND APPLICATION” (SHANGHAI SIXTH PEOPLE'S HOSPITAL, priority 2023, published 2025).

The test system of one assay is MCAO model. The experiment in a line: MCAO cerebral ischemia model, cerebral infarction volume (TTC staining). In kind it is in vivo, mice. The conditions noted are these: 30 mg/kg intraperitoneal; MCAO 30 minutes, 24 hours after ischemia. The protocol:
Figure a illustrates the TTC staining results of brain slices obtained from animals sacrificed 24 hours after different drug treatments following MCAO ischemia for 30 minutes. The dark areas represent normal brain tissue, while the white areas represent infarcted brain tissue. CGS19755 was administered at a concentration of 1 mg/kg (intraperitoneal injection), PcTX-1 was administered at a concentration of 100 ng/kg (ASIC1a blocker, intranasal drip), LK-2 was administered at concentrations of 10 mg/kg or 30 mg/kg (intraperitoneal injection), and Saline was used as the control group. […] The specific steps are as follows: a transient focal ischemic model was formed by occluding the middle cerebral artery for 30 minutes in wild-type or ASIC1a gene knockout mice. The animals were anesthetized using the animal anesthesia machine (RWD). During the induction of anesthesia, the animals are placed in a transparent chamber (15×25×30 cm) containing 2% isoflurane. During the MCAO procedure, the animals are worn a mask delivering 1% isoflurane. Complete occlusion of the middle cerebral artery was confirmed using continuous laser Doppler blood flow measurement (Moor, FLPI-2). Animals with less than 50% reduction in blood flow during MCAO were excluded. […] In this test, mice were placed on the rotating rod and the time to fall was recorded. […]

The target in a further assay is T1, GluN1+NR2A (Homo sapiens, UniProt Q05586+Q12879).
T1 construct: expressed in transfected cells; host or cells: CHO cells
The experiment in a line: Whole-cell patch clamp, blocking of GluN1+NR2A NMDAR current in CHO cells. The conditions noted are these: 100 μM NMDA and 1 μM glycine, read-out: IC50 of competitive antagonism against glutamate binding GluN1+NR2A currents. The assay is classed as cell-based. The protocol: Figure a illustrates LK-2 concentration-dependent blocking of signal of GluN1+GluN2A and GluN1+GluN2B subtypes of NMDAR currents (recorded from the same CHO cell) in patch clamp experiments, with 100 μM NDMA and 1 μM glycine used to activate NMDAR currents. LK-2 concentrations were 1, 10, 100, and 500 μM in sequence. Figure b illustrates the dose-response curves fitted based on the current amplitudes recorded in Figure a, with IC50 representing the half-maximal inhibitory concentration. Smaller IC50 values indicate stronger blocking effects of the compound.
[drawing 3] • 2. Electrophysiological experiments refer to the use of patch clamp techniques to overexpress ASICs (ASIC1a) and NMDARs (GluNR1+NR2A or GluNR1+NR2B) in CHO cell lines (Chinese hamster ovary cells), with the above-mentioned proteins carrying GFP green fluorescent protein for identification under fluorescence microscopy. The synthesized small molecules are separately tested for their blocking effects on the currents generated by the two types of receptors, and the IC50 values are calculated. • 2.1 The experimental steps of the membrane clamp technique are as follows.
Whole-cell patch clamp recordings were performed on neurons or CHO cells cultured in a cell-culture dish mounted on a fixed stage upright microscope. The recording electrode (resistance 4-6 MΩ) was made of 1.5 mm borosilicate glass. […]
(Patch clamp records ionic current or voltage across a cell membrane.)

T1 sequence (Q12879 23-1464, other chains not shown): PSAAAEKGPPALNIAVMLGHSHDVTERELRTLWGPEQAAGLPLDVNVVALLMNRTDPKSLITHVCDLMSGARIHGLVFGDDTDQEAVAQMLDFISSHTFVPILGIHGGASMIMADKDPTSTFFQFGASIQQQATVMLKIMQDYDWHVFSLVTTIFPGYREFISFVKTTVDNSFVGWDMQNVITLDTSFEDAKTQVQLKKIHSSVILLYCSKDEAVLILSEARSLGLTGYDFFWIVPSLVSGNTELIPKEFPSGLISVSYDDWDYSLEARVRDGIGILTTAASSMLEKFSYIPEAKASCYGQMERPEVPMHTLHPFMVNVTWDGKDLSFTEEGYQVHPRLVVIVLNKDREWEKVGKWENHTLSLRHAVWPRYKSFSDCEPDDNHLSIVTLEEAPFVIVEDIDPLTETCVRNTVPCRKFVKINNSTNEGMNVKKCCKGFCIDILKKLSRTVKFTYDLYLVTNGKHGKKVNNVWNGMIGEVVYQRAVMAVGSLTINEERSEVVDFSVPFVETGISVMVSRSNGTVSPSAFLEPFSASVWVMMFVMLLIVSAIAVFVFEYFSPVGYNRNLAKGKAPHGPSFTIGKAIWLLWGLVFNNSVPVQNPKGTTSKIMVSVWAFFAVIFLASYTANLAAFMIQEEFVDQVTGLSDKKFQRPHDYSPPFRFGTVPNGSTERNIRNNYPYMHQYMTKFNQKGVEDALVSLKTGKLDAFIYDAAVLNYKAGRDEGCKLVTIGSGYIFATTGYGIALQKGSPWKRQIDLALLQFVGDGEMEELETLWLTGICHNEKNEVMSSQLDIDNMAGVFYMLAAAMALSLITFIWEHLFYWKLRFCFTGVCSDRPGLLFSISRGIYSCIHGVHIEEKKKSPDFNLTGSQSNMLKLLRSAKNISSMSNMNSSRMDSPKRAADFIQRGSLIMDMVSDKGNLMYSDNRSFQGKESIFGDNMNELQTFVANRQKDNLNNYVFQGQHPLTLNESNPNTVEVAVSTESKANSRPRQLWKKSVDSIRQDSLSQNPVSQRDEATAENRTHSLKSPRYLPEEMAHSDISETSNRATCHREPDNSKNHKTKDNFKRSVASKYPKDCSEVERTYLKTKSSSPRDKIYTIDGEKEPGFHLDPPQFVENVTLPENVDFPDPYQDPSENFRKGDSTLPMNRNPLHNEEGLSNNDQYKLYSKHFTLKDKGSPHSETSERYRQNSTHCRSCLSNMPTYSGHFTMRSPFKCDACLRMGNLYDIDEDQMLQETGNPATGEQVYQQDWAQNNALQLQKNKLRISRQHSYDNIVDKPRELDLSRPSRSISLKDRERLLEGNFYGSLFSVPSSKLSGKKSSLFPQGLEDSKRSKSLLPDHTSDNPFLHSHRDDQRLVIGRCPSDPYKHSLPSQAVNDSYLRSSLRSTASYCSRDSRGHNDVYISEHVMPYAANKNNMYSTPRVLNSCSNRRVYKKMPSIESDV

For the compound `O=C(O)C1CN(C(c2ccccc2)P(=O)(O)O)CCN1` (centres unmarked) [LK-2], the “reduction of volume of cerebral infarction” value in the assay with MCAO model turned out to be 52.8%. The IC50 on GluN1+NR2A was 93.1 ± 28.3 µM.

Broadly, the IC50 is the concentration needed to halve the response being measured.
